Assay [1] addresses T1, SARS-CoV-2 NSP3 Mac1 (Severe acute respiratory syndrome coronavirus 2, UniProt P0DTD1). Nature of the assay: biochemical. The settings on record: for pIC50: HTRF ADPr-conjugated peptide displacement, read-out: IC50; for pKi: read-out: Ki***. The format is binding. (In general: In TR-FRET formats the signal depends on donor and acceptor labels being close together.)
Assay [2] deals with SARS-CoV-2 NSP3 Mac1. The assay can be described thus: Overall hit call (binding in crystallographic soaking or the HTRF-based binding assay). The source says: Supplement pnas.2212931120.sd01.xlsx, sheet "Compound Summary" | column: HIT*
Assay [3] deals with T1, SARS-CoV-2 NSP3 Mac1. The format is binding. The conditions noted are these: for Refined occupancy: ligand occupancy after refinement (phenix.refine).
Setting [4] is: PanDDA 1-BDC of the event, compound stock 100 mM, Echo dispense volume 40 nl.
[5] abbreviates: PanDDA 1-BDC of the event, compound stock 100 mM, Echo dispense volume 80 nl.
[6] abbreviates: PanDDA event map, 1 minus background density correction, crystal soaking of Mac1.
Where [7] appears, read: crystal soak, compound stock 100 mM, Echo dispense volume 40 nl.
Setting [8] is: crystal soak, compound stock 100 mM, Echo dispense volume 80 nl.
[9] abbreviates: ligand modeled in structure, compound stock 100 mM, Echo dispense volume 80 nl.
Setting [10] is: PanDDA event map 1-BDC, crystal soak, Compound_concentration 100 mM, PanDDA run dmso_34 or nohits_35 per dataset.
Setting [11] is: crystal soak, Compound_concentration 100 mM, Echo dispense 40 nl, PanDDA run dmso_34 or nohits_35 per dataset.
[12] abbreviates: ligand modeled in this dataset, crystal soak, Compound_concentration 100 mM.
Where [13] appears, read: PanDDA event map background density correction, crystal soak, compound concentration 100 mM.
The mark [14] stands for this setting: ligand modeled in the crystal structure, crystal soak, compound concentration 100 mM.

Usually pIC50 stands for the negative decadic logarithm of the IC50, by convention in mol/L. As a reminder, the pKi is the Ki on a negative log10 scale, so that one unit is a factor of ten.

pIC50, pKi: −log10 of the molar value. Read-outs that look alike come from different tables or passages of the source.

As to `Cn1ncc2ncnc(NS(=O)(=O)Cc3ccc(CC#N)cc3)c21` [Z6742], at SARS-CoV-2 NSP3 Mac1 [1], the pIC50 was 4.37 and the pKi was 4.43. Also, the “HIT*” value in the assay with SARS-CoV-2 NSP3 Mac1 [2] is reported as “Y”.
The like results for `O=C(O)[C@H]1[C@@H]2CN(c3ncnc4[nH]c5cc(F)ccc5c34)CC[C@@H]21` [LL114_0037] were, in that order, 4.42, 4.49 and “Y”.
In the case of `O=C(NC1C=CC(C(=O)O)C1)c1ncnc2sccc12` (stereo not drawn) [Z6645], at SARS-CoV-2 NSP3 Mac1 [1], the pIC50 is 4.16 and the pKi was 4.22. In addition, the “HIT*” value in the assay with SARS-CoV-2 NSP3 Mac1 [2] is “Y”.
The like results for `CCC(=O)Nc1nc(C)c(S(=O)(=O)Nc2cccc(C#N)c2)s1` [Z0611] were, in that order, 3.84, 3.91 and “Y”.
`CN(Cc1ccccn1)c1ncnc2[nH]c3cc(F)ccc3c12` [LRM-0028]: the 1-BDC turned out to be 0.14 on SARS-CoV-2 NSP3 Mac1 [3] (setting [4]) and 0.15 on SARS-CoV-2 NSP3 Mac1 [3] (setting [5]). For the same compound, the “1-BDC (PanDDA)” value on SARS-CoV-2 NSP3 Mac1 [3] (setting [6]) came to 0.15. The “PanDDA hit?” value on SARS-CoV-2 NSP3 Mac1 [3] (setting [7]) and on SARS-CoV-2 NSP3 Mac1 [3] (setting [8]) was “TRUE” throughout. The “Modeled?” value on SARS-CoV-2 NSP3 Mac1 [3] (setting [9]) is on record as “TRUE”. The compound also returned a Refined occupancy at SARS-CoV-2 NSP3 Mac1 [3] (crystal soaking of Mac1) of 30. The “HIT*” value with SARS-CoV-2 NSP3 Mac1 [2] was “Y”.
As for `c1ccc(CNc2ncnc3[nH]ccc23)nc1` [SRH-0028], the 1-BDC at SARS-CoV-2 NSP3 Mac1 [3] (setting [10]) amounted to 0.09. Further, the “1-BDC (PanDDA)” value at SARS-CoV-2 NSP3 Mac1 [3] (setting [6]) came out at 0.09. In addition, on SARS-CoV-2 NSP3 Mac1 [3] (setting [11]), the “PanDDA hit?” value was “TRUE”. For the same compound, the “Modeled?” value on SARS-CoV-2 NSP3 Mac1 [3] (setting [12]) was “TRUE”. In addition, the Refined occupancy at SARS-CoV-2 NSP3 Mac1 [3] (crystal soaking of Mac1) is 18. Moreover, in the assay with SARS-CoV-2 NSP3 Mac1 [2], the “HIT*” value was “Y”.
Regarding `O=C(O)CC(NC(=O)c1cc(F)cc2[nH]cnc12)c1ccc(Br)cc1` (stereo not drawn) [Z3722], at SARS-CoV-2 NSP3 Mac1 [1], the pIC50 was 4.58 and the pKi is 4.64. Further, the “HIT*” value with SARS-CoV-2 NSP3 Mac1 [2] was “Y”.
Regarding `O[C@@H]1CC[C@H](Nc2ncnc3[nH]c4cc(F)ccc4c23)C1` [LRH-0018], the 1-BDC at SARS-CoV-2 NSP3 Mac1 [3] (setting [5]) and on SARS-CoV-2 NSP3 Mac1 [3] (setting [10]) was 0.07 in each case. On SARS-CoV-2 NSP3 Mac1 [3] (setting [6]), the “1-BDC (PanDDA)” value amounted to 0.07. Besides, the “PanDDA hit?” value on SARS-CoV-2 NSP3 Mac1 [3] (setting [11]) and at SARS-CoV-2 NSP3 Mac1 [3] (setting [8]) was “TRUE” each time. For the same compound, the “Modeled?” value at SARS-CoV-2 NSP3 Mac1 [3] (setting [12]) is recorded as “TRUE”. The compound also yielded a Refined occupancy on SARS-CoV-2 NSP3 Mac1 [3] (crystal soaking of Mac1) of 14. Further, in the assay with SARS-CoV-2 NSP3 Mac1 [2], the “HIT*” value is “Y”.
The compound `O[C@@H]1CC[C@H](Nc2ncnc3[nH]ccc23)C1` [SRH-0018] had a 1-BDC on SARS-CoV-2 NSP3 Mac1 [3] (setting [6]) of 0.07. Further, the “Modeled?” value on SARS-CoV-2 NSP3 Mac1 [3] (ligand modeled from this dataset, compound concentration 100 mM) was “TRUE”. At SARS-CoV-2 NSP3 Mac1 [3] (crystal soaking of Mac1), this compound showed a Refined occupancy of 14. Further, in the assay on SARS-CoV-2 NSP3 Mac1 [2], the “HIT*” value is on record as “Y”.
`Cn1ccn2c(CCNC(=O)[C@H]3C[C@H]3C(=O)O)nnc2c1=O` [Z6744]: the 1-BDC at SARS-CoV-2 NSP3 Mac1 [3] (setting [13]) is recorded as 0.3. For the same compound, on SARS-CoV-2 NSP3 Mac1 [3] (setting [6]), the “1-BDC (PanDDA)” value turned out to be 0.3. Moreover, the “Modeled?” value on SARS-CoV-2 NSP3 Mac1 [3] (setting [14]) was “TRUE”. Moreover, the Refined occupancy on SARS-CoV-2 NSP3 Mac1 [3] (crystal soaking of Mac1) is given as 60. For the same compound, the “HIT*” value in the assay with SARS-CoV-2 NSP3 Mac1 [2] is recorded as “Y”.
With `O=C(O)[C@@H]1CCC[C@H](Nc2ncnc3[nH]c4cc(F)ccc4c23)C1` [LRH-0022], the 1-BDC on SARS-CoV-2 NSP3 Mac1 [3] (setting [4]) is 0.28; at SARS-CoV-2 NSP3 Mac1 [3] (setting [5]), 0.32. The “1-BDC (PanDDA)” value on SARS-CoV-2 NSP3 Mac1 [3] (setting [6]) turned out to be 0.32. Besides, the “PanDDA hit?” value on SARS-CoV-2 NSP3 Mac1 [3] (setting [7]) and at SARS-CoV-2 NSP3 Mac1 [3] (setting [8]) was “TRUE” throughout. Further, the “Modeled?” value on SARS-CoV-2 NSP3 Mac1 [3] (setting [9]) is “TRUE”. The same compound had a Refined occupancy on SARS-CoV-2 NSP3 Mac1 [3] (crystal soaking of Mac1) of 64. Further, the “Comment (ligand modelled in the crystal structure)” value on SARS-CoV-2 NSP3 Mac1 [3] (what was observed in density instead of the vendor structure) is recorded as “pyrimido-indole core only”. Besides, in the assay on SARS-CoV-2 NSP3 Mac1 [2], the “HIT*” value is “Y”.
`Cn1ncc2c(=O)[nH]c(CCC(=O)N3CC=C(C(=O)O)C3)nc21` [Z6689] displayed a 1-BDC on SARS-CoV-2 NSP3 Mac1 [3] (setting [13]) of 0.17. Besides, the “1-BDC (PanDDA)” value at SARS-CoV-2 NSP3 Mac1 [3] (setting [6]) is 0.17. Further, on SARS-CoV-2 NSP3 Mac1 [3] (setting [14]), the “Modeled?” value is given as “TRUE”. The compound also yielded a Refined occupancy on SARS-CoV-2 NSP3 Mac1 [3] (crystal soaking of Mac1) of 34. For the same compound, the “HIT*” value in the assay on SARS-CoV-2 NSP3 Mac1 [2] was “Y”.
With `CN(c1ncnc2[nH]c3cc(F)ccc3c12)C1CCCS(=O)(=O)C1` (stereo not drawn) [LRM-0010], the 1-BDC on SARS-CoV-2 NSP3 Mac1 [3] (setting [5]) came out at 0.06. In addition, the “1-BDC (PanDDA)” value on SARS-CoV-2 NSP3 Mac1 [3] (setting [6]) was found to be 0.06. Moreover, at SARS-CoV-2 NSP3 Mac1 [3] (setting [8]), the “PanDDA hit?” value was “TRUE”. For the same compound, the “Modeled?” value at SARS-CoV-2 NSP3 Mac1 [3] (setting [9]) is “TRUE”. For the same compound, the Refined occupancy on SARS-CoV-2 NSP3 Mac1 [3] (crystal soaking of Mac1) was 12. Further, the “HIT*” value with SARS-CoV-2 NSP3 Mac1 [2] was “Y”.

The values above are taken from article PMC9926234, “Iterative computational design and crystallographic screening identifies potent inhibitors targeting the Nsp3 macrodomain of SARS-CoV-2” (Proceedings of the National Academy of Sciences of the …, 2023).
